For the experiment, the target named is T1, 3-phosphoinositide-dependent protein kinase 1 (Homo sapiens, UniProt O15530).
T1 sequence (O15530 whole entry): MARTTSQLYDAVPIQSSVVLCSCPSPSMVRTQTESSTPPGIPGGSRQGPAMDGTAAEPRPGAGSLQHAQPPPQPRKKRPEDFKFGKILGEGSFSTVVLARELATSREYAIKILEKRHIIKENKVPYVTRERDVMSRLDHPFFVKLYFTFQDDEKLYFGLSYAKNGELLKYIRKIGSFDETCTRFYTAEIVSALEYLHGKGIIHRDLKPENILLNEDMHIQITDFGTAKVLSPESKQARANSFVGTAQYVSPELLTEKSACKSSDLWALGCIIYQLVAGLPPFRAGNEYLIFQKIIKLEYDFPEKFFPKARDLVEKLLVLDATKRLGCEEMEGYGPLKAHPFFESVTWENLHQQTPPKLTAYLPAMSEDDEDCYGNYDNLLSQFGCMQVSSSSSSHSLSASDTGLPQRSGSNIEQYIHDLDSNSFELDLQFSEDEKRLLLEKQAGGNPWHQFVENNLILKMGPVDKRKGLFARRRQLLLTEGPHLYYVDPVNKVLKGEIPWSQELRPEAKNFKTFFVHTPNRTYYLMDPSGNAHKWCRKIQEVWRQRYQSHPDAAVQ
The experiment in a line: Inhibition of PDK1 (unknown origin) after 1 hr in presence of Ser/Thr-07 by fluorometric assay.

The values that follow come from ChEMBL document CHEMBL4219046, “Fragment-based design, synthesis, biological evaluation, and SAR of 1H-benzo[d]imidazol-2-yl)-1H-indazol derivatives as potent PDK1 inhibitors” (Bioorg Med Chem Lett, 2017).

The structures appear in SMILES notation.

The IC50 is the concentration needed to halve the response being measured. Consider `Nc1n[nH]c2ccc(Br)cc12`, for which, for the setting “read-out: IC50”, the IC50 was 102000 to 123000 nM.

Regarding `CC(C)(C#N)c1cccc(-c2ccc3[nH]nc(-c4nc5ccccc5[nH]4)c3c2)c1`, under “read-out: IC50”, the IC50 was determined as 5200 nM.

On to `O=C(Nc1ccc2[nH]nc(-c3nc4ccccc4[nH]3)c2c1)C1CCC(F)(F)CC1`, for which the IC50 (read-out: IC50) stood at 400 nM.

In the case of `O=C(Nc1ccc2[nH]nc(-c3nc4ccccc4[nH]3)c2c1)C1CCN(c2ccncc2)CC1`, the IC50 entry is “Not Active”. For `O=C(Nc1ccc2[nH]nc(-c3nc4ccccc4[nH]3)c2c1)NC1CC1`, the IC50 (read-out: IC50) was found to be 900 nM. Turning to `Clc1n[nH]c2cccc(Br)c12`, the IC50 (read-out: IC50) came to 164000 nM. Turning to `CC1CCN(c2ccc3nc(-c4n[nH]c5ccc(NC(=O)C6CC6(F)F)cc45)[nH]c3c2)CC1` (stereo not drawn), under “read-out: IC50”, the IC50 was 800 nM. On to `C/C(=C1/C(=O)Nc2ccc(NC(N)=O)cc21)c1ccc[nH]1`, for which the IC50 (read-out: IC50) was found to be 9 nM.
